This note sets out measurements from PubChem BioAssay AID182 (DTP/NCI, 2004).

The subject of this assay is BDF1 mice, P388/ADR leukemia ip, median survival T/C. The experiment in a line: NCI In Vivo Anticancer Drug Screen. Data for tumor model P388 Leukemia resistant to Adriamycin; NSC 123127, Developed at Scr 06 and 41 (intraperitoneal) in B6D2F1 (BDF1) mice. To be noted: endpoint: median survival time, higher = longer survival. As for the experimental part:
The antitumor activity of compounds was measured in mice bearing transplantable tumors. Survival or tumor size were measured and the results are expressed as the measurement made in the treated group (T) divided by the measurement made in the vehicle treated control group (C). The tumor model used in this assay is P388 Leukemia resistant to Adriamycin; NSC 123127, Developed at Scr 06 and 41 (intraperitoneal) in B6D2F1 (BDF1) mice

Setting [1] is: dose: 13.33 mg/kg/injection, schedule: Q04DX003 (ip), vehicle: saline.
[2] abbreviates: dose: 18.0 mg/kg/injection, schedule: Q04DX003 (ip), vehicle: saline.
[3] abbreviates: dose: 30.0 mg/kg/injection, schedule: Q04DX003 (ip), vehicle: saline.
Where [4] appears, read: dose: 1.3 mg/kg/injection, schedule: Q04DX003 (ip), vehicle: water.

SMILES strings stand for the structures. Several values for one entry are separate records, joined by “and”; a condition that tells them apart may be missing. Equal entries are not always repeated. Toxic doses and inconclusive results are not listed. Starred links: 1 amine or outer side, 2 acyl side, 3 side chain; linkers in the order of their positions; H or OH if unused. Positions of bridges follow the written chain, without caps; N, C: chain ends. Non-standard residues stand in square brackets, D forms with d. Residues, ends and D or L forms follow the SMILES beside them. Chains are numbered I, II in the order given. Actinocin(9to1) = Cc1c2oc3c(C)ccc(C(=O)[*:1])c3nc-2c(C(=O)[*:2])c(N)c1=O; aThr = C[C@H](O)[C@H](N)C(=O)O; NMeV = CN[CH](C(=O)O)C(C)C; Aze = O=C(O)[CH]1CCN1; Sar = CNCC(=O)O

With `COc1cc([C@@H]2c3cc4c(cc3[C@@H](OC3OC5CO[C@@H](c6cccs6)OC5C(O)C3O)[C@H]3COC(=O)[C@H]23)OCO4)cc(OC)c1O` (stereo not given in full), the T/C under setting [1] was 123 % of control.
In the case of `O=P1(N(CCCl)CCCl)NCCCO1` (stereo not given), the T/C is, setting by setting: (dose: 108.0 mg/kg/injection, schedule: Q01DX001 (ip), vehicle: saline) 476 % of control; (dose: 180.0 mg/kg/injection, schedule: Q01DX001 (ip), vehicle: saline) 475 % of control.
For the compound `COc1cccc2c1C(=O)c1c(O)c3c(c(O)c1C2=O)CC(O)(C(=O)CO)CC3OC1CC(N)C(O)C(C)O1` (stereo not given), the T/C runs as follows: (dose: 1.73 mg/kg/injection, schedule: Q01DX004 (ip), vehicle: water) 103 % of control; (dose: 6.48 mg/kg/injection, schedule: Q04DX003 (ip), vehicle: saline) 107 % of control; (dose: 10.8 mg/kg/injection, schedule: Q04DX003 (ip), vehicle: saline) 93 % of control; under setting [2], 106 % of control; under setting [3], 94 % of control.
On to `O=C(Nc1ccc(C2=NCCCN2)cc1)c1ccc(C(=O)Nc2ccc(C3=NCCCN3)cc2)cc1`, for which the T/C (dose: 10.8 mg/kg/injection, schedule: Q04DX003 (ip), vehicle: other) was 118 % of control and the T/C (dose: 30.0 mg/kg/injection, schedule: Q04DX003 (ip), vehicle: other) was 94 % of control.
With `Cc1c2oc3c(C)ccc(C(=O)N[C@@H]4C(=O)N[C@H](C(C)C)C(=O)N5CCC[C@H]5C(=O)N(C)CC(=O)N(C)[C@@H](C(C)C)C(=O)O[C@H]4C)c3nc-2c(C(=O)N[C@@H]2C(=O)N[C@H](C(C)C)C(=O)N3CCC[C@H]3C(=O)N(C)CC(=O)N(C)[C@@H](C(C)C)C(=O)O[C@H]2C)c(N)c1=O` (I: [aThr][dV]P[Sar][NMeV] / II: [aThr][dV]P[Sar][NMeV]; ester I:1-I:C, II:1-II:C; linker I:N-II:N via Actinocin(9to1)), the T/C (dose: 0.3 mg/kg/injection, schedule: Q04DX003 (ip), vehicle: saline) was 173 % of control; the T/C (dose: 108.0 micrograms/kg/injection, schedule: Q04DX003 (ip), vehicle: saline + alcohol) is 111 % of control and 201 % of control; the T/C (dose: 180.0 micrograms/kg/injection, schedule: Q04DX003 (ip), vehicle: saline + alcohol) is 118 % of control; the T/C (dose: 300.0 micrograms/kg/injection, schedule: Q04DX003 (ip), vehicle: saline + alcohol) was 116 % of control and 117 % of control; the T/C (dose: 500.0 micrograms/kg/injection, schedule: Q04DX003 (ip), vehicle: saline + alcohol) is 88 % of control.
On to `CCC1(O)CC(OC2CC(N(C)C)C(OC3CC4OC5CC(=O)C(C)OC5OC4C(C)O3)C(C)O2)c2c(cc3c(c2O)C(=O)c2c(O)ccc(O)c2C3=O)C1C(=O)OC` (stereo not given), for which the T/C was 112 % of control (dose: 0.86 mg/kg/injection, schedule: Q04DX003 (ip), vehicle: water); 115 % of control under setting [4]; 120 % of control (dose: 1.44 mg/kg/injection, schedule: Q04DX003 (ip), vehicle: water); 124 % of control (dose: 2.4 mg/kg/injection, schedule: Q04DX003 (ip), vehicle: water).
Turning to `COC(=O)C[C@](O)(CCCC(C)(C)O)C(=O)O[C@@H]1C(OC)=C[C@]23CCCN2CCc2cc4c(cc2[C@H]13)OCO4`, the T/C (dose: 0.72 mg/kg/injection, schedule: Q04DX003 (ip), vehicle: acid diluted with saline) is 100 % of control; the T/C (dose: 1.2 mg/kg/injection, schedule: Q04DX003 (ip), vehicle: acid diluted with saline) was 103 % of control; the T/C (dose: 2.0 mg/kg/injection, schedule: Q04DX003 (ip), vehicle: acid diluted with saline) was 110 % of control.
On to `CC[C@](O)(C(=O)O)c1cc2n(c(=O)c1CO)Cc1cc3ccccc3nc1-2`, for which the T/C reads like this: under setting [2], 183 % of control; under setting [3], 209 % of control; (dose: 50.0 mg/kg/injection, schedule: Q04DX003 (ip), vehicle: saline) 206 % of control.
On to `COC(=O)[C@@H]1c2cc3c(c(O)c2[C@@H](OC2OC(C)C(OC)C(C)(OC)C2OC)C[C@]1(C)O)C(=O)c1c(O)cc2c(c1C3=O)O[C@H]1O[C@]2(C)[C@H](O)[C@@H](N(C)C)[C@@H]1O` (stereo not given in full), for which the T/C (dose: 0.65 mg/kg/injection, schedule: Q04DX003 (ip), vehicle: water) is 89 % of control; the T/C (dose: 1.08 mg/kg/injection, schedule: Q04DX003 (ip), vehicle: water) was 96 % of control; the T/C under setting [4] is 103 % of control; the T/C (dose: 1.8 mg/kg/injection, schedule: Q04DX003 (ip), vehicle: water) was 96 % of control; the T/C (dose: 2.16 mg/kg/injection, schedule: Q04DX003 (ip), vehicle: water) was 91 % of control.
For the compound `C[n+]1ccc(Nc2ccc(NC(=O)c3ccc(Nc4cc[n+](C)c5ccc(N)cc45)cc3)cc2)cc1`, for the setting “dose: 7.2 mg/kg/injection, schedule: Q01DX009 (ip), vehicle: water”, the T/C was 163 % of control.
For `Cc1c2ccncc2c(C)c2c1[nH]c1ccccc12`, the T/C runs as follows: (dose: 13.0 mg/kg/injection, schedule: Q04DX003 (ip), vehicle: water) 112 % of control; (dose: 21.6 mg/kg/injection, schedule: Q04DX003 (ip), vehicle: water) 104 % of control and 109 % of control; (dose: 36.0 mg/kg/injection, schedule: Q04DX003 (ip), vehicle: water) 110 % of control and 117 % of control.
For the compound `Cc1c(N)nc([C@H](CC(N)=O)NC[C@H](N)C(N)=O)nc1C(=O)N[C@H](C(=O)N[C@H](C)[C@@H](O)[C@H](C)C(=O)N[C@H](C(=O)NCCc1nc(-c2nc(C(=O)NCCC[S+](C)C)cs2)cs1)[C@@H](C)O)C(OC1OC(CO)C(O)C(O)C1OC1OC(CO)C(O)C(OC(N)=O)C1O)c1cnc[nH]1` (stereo not given in full), the T/C is 105 % of control (dose: 2.88 mg/kg/injection, schedule: Q01DX009 (ip), vehicle: saline); 107 % of control (dose: 4.8 mg/kg/injection, schedule: Q01DX009 (ip), vehicle: saline); 110 % of control (dose: 6.5 mg/kg/injection, schedule: Q01DX009 (ip), vehicle: saline); 105 % of control (dose: 8.0 mg/kg/injection, schedule: Q01DX009 (ip), vehicle: saline); 93 % of control (dose: 10.8 mg/kg/injection, schedule: Q01DX009 (ip), vehicle: saline); 103 % of control (dose: 13.33 mg/kg/injection, schedule: Q01DX009 (ip), vehicle: saline). Moreover, the T/C reads like this: under setting [1], 103 % of control; (dose: 18.0 mg/kg/injection, schedule: Q01DX009 (ip), vehicle: saline) 95 % of control; (dose: 22.22 mg/kg/injection, schedule: Q04DX003 (ip), vehicle: saline) 110 % of control; (dose: 30.0 mg/kg/injection, schedule: Q01DX009 (ip), vehicle: saline) 90 % of control; (dose: 37.0 mg/kg/injection, schedule: Q04DX003 (ip), vehicle: saline) 98 % of control.
Regarding `NC(C/[N+]([O-])=N/O)C(=O)O` (stereo not given), the T/C (dose: 288.0 mg/kg/injection, schedule: Q04DX003 (ip), vehicle: sodium bicarbonate) is 159 % of control and the T/C (dose: 480.0 mg/kg/injection, schedule: Q04DX003 (ip), vehicle: sodium bicarbonate) was 154 % of control.
With `Cc1c2oc3c(C)ccc(C(=O)NC4C(=O)NC(C(C)C)C(=O)N5CCC5C(=O)N(C)CC(=O)N(C)C(C(C)C)C(=O)OC4C)c3nc-2c(C(=O)NC2C(=O)NC(C(C)C)C(=O)N3CCC3C(=O)N(C)CC(=O)N(C)C(C(C)C)C(=O)OC2C)c(N)c1=O` (stereo not given) (I: TV[Aze][Sar][NMeV] / II: TV[Aze][Sar][NMeV]; ester I:1-I:C, II:1-II:C; linker I:N-II:N via Actinocin(9to1); configuration not given here), the T/C is, setting by setting: (dose: 216.0 micrograms/kg/injection, schedule: Q01DX003 (ip), vehicle: saline + alcohol) 110 % of control; (dose: 360.0 micrograms/kg/injection, schedule: Q01DX003 (ip), vehicle: saline + alcohol) 103 % of control; (dose: 600.0 micrograms/kg/injection, schedule: Q01DX003 (ip), vehicle: saline + alcohol) 104 % of control; (dose: 1000.0 micrograms/kg/injection, schedule: Q01DX003 (ip), vehicle: saline + alcohol) 86 % of control.
In the case of `COc1cc(NS(C)(=O)=O)ccc1Nc1c2ccccc2nc2ccccc12`, the T/C reads like this: (dose: 3.6 mg/kg/injection, schedule: Q04DX003 (ip), vehicle: other) 123 % of control; (dose: 5.4 mg/kg/injection, schedule: Q04DX003 (ip), vehicle: clinical formulation) 106 % of control; (dose: 9.0 mg/kg/injection, schedule: Q04DX003 (ip), vehicle: clinical formulation) 114 % of control.
As for `N[C@H](C(=O)O)[C@@H]1CC(Cl)=NO1`, the T/C (dose: 36.0 mg/kg/injection, schedule: Q04DX003 (ip), vehicle: saline) is 122 % of control.
